As a reminder, the melting point is the temperature, or range, at which the solid turns liquid.

Data on 78 compounds can be found in a melting point compilation (Tetko et al.).

With `Cc1c(Cl)c(C)c([N+](=O)[O-])c(O)c1Cl`, the melting point was in the range of 227 to 229 °C.

In the case of `FC(F)(F)C(F)(F)C(F)(F)N(C(F)(F)C(F)(F)C(F)(F)F)C(F)(F)C(F)(F)C(F)(F)F`, the melting point was -52 °C.

For the compound `Cc1oc(-c2ccccc2)nc1C(=O)O`, the melting point fell in the range of 182 to 183 °C.

With `O=[N+]([O-])c1ccc(OCCN2CCOCC2)cc1`, the melting point lay within 84 to 86 °C.

In turn, `COc1ccc(C(C)=NO)cc1OC` showed a melting point of 147 to 150 °C.

For `O=C(CCCN1CCC(n2c(=S)[nH]c3ccccc32)CC1)c1ccc(F)cc1`, the melting point was 202 °C.

The compound `O=C(Nc1ccc(Br)cc1)c1c(O)cccc1O` showed a melting point of 229 °C.

In the case of `CCCCc1ccc(/C=N/c2ccc(C(C)=O)cc2)cc1`, the melting point was 83 to 93 °C.

On to `O=C(COc1ncn(-c2ccc(Cl)cc2)n1)NNC(=S)Nc1ccc(F)cc1`, for which the melting point lay within 181 to 183 °C.

Consider `C=CC[C@H](NC(=O)OCC1c2ccccc2-c2ccccc21)C(=O)O`, for which the melting point came to 137 °C.

With `CCCOc1c(Cl)cc(C(=O)O)cc1Cl`, the melting point fell in the range of 129 to 132 °C.

As to `CO[C@](C(=O)O)(c1ccccc1)C(F)(F)F`, the melting point amounted to 44 °C.

Compound `COC(=O)c1cccc(C)c1O` showed a melting point of 29 °C.

`Cc1cc2ncn(C3OC(CO)C(O)C3O)c2cc1C` (stereo not drawn) had a melting point of 198 °C.

On to `NNC(=O)c1ccccc1F`, for which the melting point was found to be 73 °C.

`Nc1cccnc1Br` returned a melting point of 77 °C.

Consider `CC(C)COC(=O)CCCCC(=O)OCC(C)C`, for which the melting point was -20 °C.

Compound `CCCc1ccc(C(=O)CCC(=O)O)cc1` came in with a melting point of 117 to 119 °C.

`O=C(Oc1ccc(Cl)cc1)c1ccc(Oc2ccc(C(=O)Oc3ccc(Cl)cc3)cc2)cc1` had a melting point of 149 °C.

`CCC(C(=O)O)C1(O)CCC(c2ccccc2)CC1` (stereo not drawn) had a melting point of 157 °C.

In turn, `c1cn[nH]c1` had a melting point of 68 °C.

In turn, `CC(=O)c1csc(-c2cc(C)on2)n1` displayed a melting point of 130 to 132 °C.

`CN(C)c1ccc(N=O)cc1` yielded a melting point of 92.5 °C.

As for `O=C(O)c1cccc2c1C(=O)c1ccccc1-2`, the melting point lay in the range of 194 to 198 °C.

In the case of `c1cncc(Cn2cccc2)c1`, the melting point is 59 to 64 °C.

In turn, `CCCCOC(=O)C=CC(=O)OCCCC` came in with a melting point of -85 °C.

`CC1CCC(=O)N1` (stereo not drawn) registered a melting point of 43 °C.

For the compound `CCCCCCCCCCCCCCCCCCCCCCCCCCCCCC[Si](C)(C)Cl`, the melting point was in the range of 60 to 80 °C.

`CC(C)(C)SC(C)(C)C` yielded a melting point of -9 °C.

Compound `COc1ccc(C=Nc2n[nH]c(N=Cc3ccc(OC)c(OC)c3)c2Cc2ccc(Cl)cc2)cc1OC` came in with a melting point of 170 to 172 °C.

Consider `CN(C)c1ccc(N)cc1`, for which the melting point came out at 53 °C.

As to `COc1ccc(C(=O)c2ccc(OC)c(OC)c2)cc1`, the melting point was determined as 79 °C.

As to `COc1cccc(C=Nn2c(C)cc(C)c(C#N)c2=O)c1O`, the melting point was 209 to 212 °C.

With `Clc1ccc(OCCCCBr)cc1`, the melting point fell in the range of 30 to 31 °C.

In the case of `NC(CO)Cc1ccccc1` (stereo not drawn), the melting point turned out to be 91.5 °C.

`CC(=O)Nc1ccc(Cl)cc1[N+](=O)[O-]` showed a melting point of 98 °C.

In turn, `OC(CCCN1CCCCC1)(c1ccccc1)c1ccccc1` gave a melting point of 104 °C.

Turning to `Cc1cc(Cl)cc(Cl)c1N=C=S`, the melting point is 57 to 58 °C.

In turn, `COC(=O)c1cc(Cl)nc(Cl)c1` returned a melting point of 82 to 83 °C.

The compound `Cc1cc(C)c2c(=O)n(-c3cccc(C(F)(F)F)c3)c(=O)[nH]c2n1` came in with a melting point of 264 to 266 °C.

`N#CCc1nc(-c2ccccc2)cs1` showed a melting point of 59 to 60 °C.

In the case of `CC1=C(C(=O)OCc2ccccc2)C(c2ccccc2)NC(=O)N1C` (stereo not drawn), the melting point came to 118 °C.

On to `CCC1OC(=O)C(C)C(OC2OC(C)CC(N(C)C)C2O)C(C)CC(C)C(=O)C=CC1(C)O` (stereo not drawn), for which the melting point is 196 °C.

On to `O=Cc1ccc(-c2ccccn2)s1`, for which the melting point lay in the range of 122 to 123 °C.

Take `NCCCCCCCCCCC(=O)O`: the melting point came to 191 °C.

`COc1cc(C=O)ccc1OC(C)=O` displayed a melting point of 76 °C.

`O=[N+]([O-])c1ccc(Oc2c(Cl)cc(Cl)cc2Cl)cc1` yielded a melting point of 106 °C.

Regarding `O=C(O)CONC(=O)c1ccccc1`, the melting point was determined as 140 °C.

In turn, `Clc1cccc2c(C#Cc3ccccc3)c3ccccc3c(C#Cc3ccccc3)c12` yielded a melting point of 199 to 204 °C.

Consider `CC(C(=O)O)c1cccc(C(=O)c2ccccc2)c1` (stereo not drawn), for which the melting point came out at 94 °C.

Turning to `CCC(C1CCc2cc(O)ccc2C1)C(C)(C)C(=O)O` (stereo not drawn), the melting point came out at 163 °C.

Consider `CCCCCCOC(=O)c1ccccc1C(=O)OCCCCCC`, for which the melting point is -58 °C.

`c1ccc(C2=C(c3ccccc3)C(c3ccccc3)=C(c3ccccc3)C2)cc1` yielded a melting point of 179 to 182 °C.

`COc1ccc2c(CCN)c[nH]c2c1` returned a melting point of 143 to 146 °C.

In turn, `CCCCCCCCCCCI` returned a melting point of 2 °C.

As for `O=C(CBr)c1cc(-c2ccc(Cl)cc2Cl)no1`, the melting point lay in the range of 85 to 87 °C.

The compound `CNC(=O)CSP(=O)(OC)OC` displayed a melting point of -28 °C.

Consider `O=Nc1c(O)ccc2ccccc12`, for which the melting point worked out at 110 °C.

As for `O=[N+]([O-])c1ccc(C=Cc2cccc(CO)n2)o1`, the melting point is 170 °C.

Turning to `FC(F)(F)c1cc(-c2cccs2)nc2cc(-c3cccs3)nn12`, the melting point came out at 158 °C.

`Cc1c(Cl)ncnc1Cl` had a melting point of 58 °C.

`NS(=O)(=O)c1ccc(C(=O)O)cc1` registered a melting point of 266 to 268 °C.

Turning to `Nc1ccc(C(F)(F)F)cc1N`, the melting point was 56 to 58 °C.

As for `COc1ccc(CC(N)=S)cc1OC`, the melting point was 136 to 138 °C.

Compound `O=C(O)C(c1ccccc1)C1CCCC1` (stereo not drawn) had a melting point of 96 to 100 °C.

Compound `O=P(O)(O)CCP(=O)(O)O` gave a melting point of 218 °C.

`O=CC(C=O)c1nc2ccccc2o1` had a melting point of 222 to 230 °C.

In the case of `O=C(Nc1ccccc1C#CC#Cc1ccccc1NC(=O)c1ccccc1)c1ccccc1`, the melting point is 211 °C.

Regarding `FC(Cl)(Cl)C(Cl)Cl`, the melting point was -82.6 °C.

As to `FC(F)(F)c1ccc(Cl)c(Br)c1`, the melting point was -23 to -22 °C.

`NS(=O)(=O)c1ccc(F)c2nonc12` yielded a melting point of 144 to 146 °C.

With `CCN(CC)C(=O)SCc1ccccc1Cl`, the melting point stood at 9 °C.

Regarding `CCOC(=O)c1c(N)sc2c1CCCC2`, the melting point is 116 °C.

Regarding `CCNc1nc(NC(C)C)nc(SC)n1`, the melting point was 88 °C.

With `CN(C)c1ccc(C=CC=O)cc1`, the melting point is 140 °C.

In the case of `CC1=CCC2C(C)(C)CCCC2(C)C12CCC(C)(CC(=O)O)O2` (stereo not drawn), the melting point worked out at 100 °C.

Consider `CCNc1ccc2ccccc2c1N=Nc1ccc(N=Nc2ccccc2)cc1`, for which the melting point amounted to 130 °C.

As for `O=C1c2ccccc2C(=O)C1c1ccc(Cl)cc1`, the melting point was 146 °C.
